Assay results reported in US20250186437A1, “CARBOLINE COMPOUNDS AND USE THEREOF” (PTC Therapeutics, Inc., priority 2021, published 2025).

system: MOLM-13 cells; assay: MOLM-13 Cell Proliferation Assay (indicator of DHODH inhibition); assay type: cell-based; conditions: Homo sapiens, 72 Hours of culture, CellTiter-Glo, no uridine
In short: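 Low-passage MOLM-13 cells (10^4/well) in RPMI 1640 + 10% FBS exposed to compound (0.5% DMSO final) for 72 h at 37 °C, 5% CO2. Viability read by CellTiter-Glo luminescence; growth reflects de novo pyrimidine synthesis dependent on DHODH.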

IC50 [nM]	SMILES
0.2	Cc1nc(N2CCc3c([nH]c4ccc(Cl)cc34)[C@@H]2c2ccc(C)c(F)c2F)nc(C(F)(F)F)n1 [Compound 464, (1S)-6-chloro-1-(2,3-difluoro-4-methylphenyl)-2-[4-methyl-6-(trifluoromethyl)-1,3,5-triazin-2-yl]-2,3,4,9-tetrahydro-1H-pyrido[3,4-b]indole]
38.7	N#Cc1ccc(C2c3[nH]c4cc(F)c(Cl)cc4c3CCN2c2ncc(Cl)cn2)cc1 (stereo not shown) [Compound 59, 4-[6-chloro-2-(5-chloropyrimidin-2-yl)-7-fluoro-2,3,4,9-tetrahydro-1H-pyrido[3,4-b]indol-1-yl]benzonitrile]
2.5	Fc1ccc(C2c3[nH]c4ccc(Cl)cc4c3CCN2c2nccc(C(F)(F)F)n2)c(F)c1F (stereo not shown) [Compound 263, 6-chloro-2-[4-(trifluoromethyl)pyrimidin-2-yl]-1-(2,3,4-trifluorophenyl)-2,3,4,9-tetrahydro-1H-pyrido[3,4-b]indole]
25.9	Cc1ccc(C2c3[nH]c4ccc(Cl)cc4c3CCN2c2ncnc(C)n2)cc1 (stereo not shown) [Compound 322, 6-chloro-1-(4-methylphenyl)-2-(4-methyl-1,3,5-triazin-2-yl)-2,3,4,9-tetrahydro-1H-pyrido[3,4-b]indole]
98.2	FC(F)(F)c1ccnc(N2CCc3c([nH]c4ccc(Cl)cc34)C2c2ccc(-n3cnnc3)cc2)n1 (stereo not shown) [Compound 269, 6-chloro-1-[4-(4H-1,2,4-triazol-4-yl)phenyl]-2-[4-(trifluoromethyl)pyrimidin-2-yl]-2,3,4,9-tetrahydro-1H-pyrido[3,4-b]indole]
25.4	Fc1ncccc1C1c2[nH]c3ccc(Cl)c(F)c3c2CCN1c1nccc(C(F)(F)F)n1 (stereo not shown) [Compound 226, 6-chloro-5-fluoro-1-(2-fluoropyridin-3-yl)-2-[4-(trifluoromethyl)pyrimidin-2-yl]-2,3,4,9-tetrahydro-1H-pyrido[3,4-b]indole]
1.8	Cc1ccc(C2c3[nH]c4ccc(Cl)cc4c3CCN2c2nncc(C(F)(F)F)n2)cc1 (stereo not shown) [Compound 430, 6-chloro-1-(4-methylphenyl)-2-[5-(trifluoromethyl)-1,2,4-triazin-3-yl]-2,3,4,9-tetrahydro-1H-pyrido[3,4-b]indole]
22.2	FC(F)(F)c1ccnc(N2CCc3c([nH]c4ccc(-n5cccc5)cc34)C2c2cnc(N3CCOCC3)nc2)n1 (stereo not shown) [Compound 314, 1-[2-(morpholin-4-yl)pyrimidin-5-yl]-6-(1H-pyrrol-1-yl)-2-[4-(trifluoromethyl)pyrimidin-2-yl]-2,3,4,9-tetrahydro-1H-pyrido[3,4-b]indole]
51.4	N#Cc1ccnc(N2CCc3c([nH]c4cc(F)c(Cl)cc34)C2c2ccc(F)cc2)n1 (stereo not shown) [Compound 25, 2-[6-chloro-7-fluoro-1-(4-fluorophenyl)-1,3,4,9-tetrahydro-2H-pyrido[3,4-b]indol-2-yl]pyrimidine-4-carbonitrile]
3.6	Oc1cccc(C2c3[nH]c4ccc(Cl)cc4c3CCN2c2nccc(C(F)(F)F)n2)c1F (stereo not shown) [Compound 256, 3-{6-chloro-2-[4-(trifluoromethyl)pyrimidin-2-yl]-2,3,4,9-tetrahydro-1H-pyrido[3,4-b]indol-1-yl}-2-fluorophenol]
0.3	Cc1ccc([C@H]2c3[nH]c4ccc(Cl)cc4c3CCN2c2nc(C(F)(F)F)nc(C(F)(F)F)n2)cc1 [Compound 386, (1S)-2-[4,6-bis(trifluoromethyl)-1,3,5-triazin-2-yl]-6-chloro-1-(4-methylphenyl)-2,3,4,9-tetrahydro-1H-pyrido[3,4-b]indole]
25.6	Cc1cnnc(N2CCc3c([nH]c4ccc(Cl)cc34)C2c2cnc(N3CCOCC3)nc2)n1 (stereo not shown) [Compound 384, 6-chloro-2-(5-methyl-1,2,4-triazin-3-yl)-1-[2-(morpholin-4-yl)pyrimidin-5-yl]-2,3,4,9-tetrahydro-1H-pyrido[3,4-b]indole]
4.5	Cc1ccc(C2c3[nH]c4cc(F)c(Cl)cc4c3CCN2c2nc(C)cc(C#N)n2)cc1 (stereo not shown) [Compound 151, 2-[6-chloro-7-fluoro-1-(4-methylphenyl)-1,3,4,9-tetrahydro-2H-pyrido[3,4-b]indol-2-yl]-6-methylpyrimidine-4-carbonitrile]
89.9	Cc1ncc(C2c3[nH]c4cc(F)c(Cl)cc4c3CCN2c2ncc(F)cn2)cn1 (stereo not shown) [Compound 91, 6-chloro-7-fluoro-2-(5-fluoropyrimidin-2-yl)-1-(2-methylpyrimidin-5-yl)-2,3,4,9-tetrahydro-1H-pyrido[3,4-b]indole]
9.7	Cc1ccc(C2c3[nH]c4cc(F)c(Cl)cc4c3CCN2c2nc(C)cc(C)n2)cc1 (stereo not shown) [Compound 66, 6-chloro-2-(4,6-dimethylpyrimidin-2-yl)-7-fluoro-1-(4-methylphenyl)-2,3,4,9-tetrahydro-1H-pyrido[3,4-b]indole]
7.7	CC(C)c1ccc(C2c3[nH]c4cc(F)c(Cl)cc4c3CCN2c2nccc(Cl)n2)cc1 (stereo not shown) [Compound 53, 6-chloro-2-(4-chloropyrimidin-2-yl)-7-fluoro-1-[4-(propan-2-yl)phenyl]-2,3,4,9-tetrahydro-1H-pyrido[3,4-b]indole]
0.7	Cc1ccc([C@H]2c3[nH]c4ccc(Cl)cc4c3CCN2c2nc(C)nc(C(F)(F)F)n2)cc1 [Compound 467, (1S)-6-chloro-1-(4-methylphenyl)-2-[4-methyl-6-(trifluoromethyl)-1,3,5-triazin-2-yl]-2,3,4,9-tetrahydro-1H-pyrido[3,4-b]indole]
2.1	Cc1ccc(C2c3[nH]c4ccc(-n5nccn5)cc4c3CCN2c2nccc(C(F)(F)F)n2)c(F)c1F (stereo not shown) [Compound 502, 1-(2,3-difluoro-4-methylphenyl)-6-(2H-1,2,3-triazol-2-yl)-2-[4-(trifluoromethyl)pyrimidin-2-yl]-2,3,4,9-tetrahydro-1H-pyrido[3,4-b]indole]
89.8	Fc1cnc(N2CCc3c([nH]c4cc(F)c(Cl)cc34)C2c2cccc(F)c2)nc1 (stereo not shown) [Compound 58, 6-chloro-7-fluoro-1-(3-fluorophenyl)-2-(5-fluoropyrimidin-2-yl)-2,3,4,9-tetrahydro-1H-pyrido[3,4-b]indole]
3	FC(F)(F)c1ccnc(N2CCc3c([nH]c4ccc(Cl)cc34)C2c2ccc(Cl)cc2)n1 (stereo not shown) [Compound 349, 6-chloro-1-(4-chlorophenyl)-2-[4-(trifluoromethyl)pyrimidin-2-yl]-2,3,4,9-tetrahydro-1H-pyrido[3,4-b]indole]
8.8	N#Cc1ccnc(N2CCc3c([nH]c4cc(F)c(Cl)cc34)C2c2cccc(F)c2F)n1 (stereo not shown) [Compound 68, 2-[6-chloro-1-(2,3-difluorophenyl)-7-fluoro-1,3,4,9-tetrahydro-2H-pyrido[3,4-b]indol-2-yl]pyrimidine-4-carbonitrile]
0.4	FC(F)(F)c1nc(N2CCc3c([nH]c4ccc(Cl)cc34)C2c2ccc(N3CCOCC3)nc2)nc(C(F)(F)F)n1 (stereo not shown) [Compound 404, 2-[4,6-bis(trifluoromethyl)-1,3,5-triazin-2-yl]-6-chloro-1-[6-(morpholin-4-yl)pyridin-3-yl]-2,3,4,9-tetrahydro-1H-pyrido[3,4-b]indole]
10.3	Fc1cc2[nH]c3c(c2cc1Cl)CCN(c1nccc(Cl)n1)C3c1ccc(Cl)cc1 (stereo not shown) [Compound 39, 6-chloro-1-(4-chlorophenyl)-2-(4-chloropyrimidin-2-yl)-7-fluoro-2,3,4,9-tetrahydro-1H-pyrido[3,4-b]indole]
78	CN(C)c1ncnc(N2CCc3c([nH]c4ccc(Cl)cc34)C2c2cnc(N3CCOCC3)nc2)n1 (stereo not shown) [Compound 297, 4-{6-chloro-1-[2-(morpholin-4-yl)pyrimidin-5-yl]-1,3,4,9-tetrahydro-2H-pyrido[3,4-b]indol-2-yl}-N,N-dimethyl-1,3,5-triazin-2-amine]
11.8	Cc1ccc(C2c3[nH]c4ccc(Cl)cc4c3CCN2c2nccc(C)n2)cc1 (stereo not shown) [Compound 332, 6-chloro-1-(4-methylphenyl)-2-(4-methylpyrimidin-2-yl)-2,3,4,9-tetrahydro-1H-pyrido[3,4-b]indole]
12	O=C(O)COCCNc1ncc([C@H]2c3[nH]c4ccc(Cl)cc4c3CCN2c2nc(C(F)(F)F)nc(C(F)(F)F)n2)cn1 [Compound 539, {2-[(5-{(1S)-2-[4,6-bis(trifluoromethyl)-1,3,5-triazin-2-yl]-6-chloro-2,3,4,9-tetrahydro-1H-pyrido[3,4-b]indol-1-yl}pyrimidin-2-yl)amino]ethoxy}acetic acid]
177	Fc1c(Cl)ccc2[nH]c3c(c12)CCN(c1nccc(C(F)(F)F)n1)[C@@H]3c1ccc(Cl)cc1 [Compound 181, (1R)-6-chloro-1-(4-chlorophenyl)-5-fluoro-2-[4-(trifluoromethyl)pyrimidin-2-yl]-2,3,4,9-tetrahydro-1H-pyrido[3,4-b]indole]
0.7	Cc1cc(C)nc(N2CCc3c([nH]c4ccc(Cl)c(F)c34)C2c2ccc(C)c(F)c2F)n1 (stereo not shown) [Compound 205, 6-chloro-1-(2,3-difluoro-4-methylphenyl)-2-(4,6-dimethylpyrimidin-2-yl)-5-fluoro-2,3,4,9-tetrahydro-1H-pyrido[3,4-b]indole]
5	CN(C)CCNc1ncc([C@H]2c3[nH]c4ccc(Cl)cc4c3CCN2c2nc(C(F)(F)F)nc(C(F)(F)F)n2)cn1 [Compound 531, N^2-(5-{(1S)-2-[4,6-bis(trifluoromethyl)-1,3,5-triazin-2-yl]-6-chloro-2,3,4,9-tetrahydro-1H-pyrido[3,4-b]indol-1-yl}pyrimidin-2-yl)-N^1,N^1-dimethylethane-1,2-diamine]
4	COC(=O)CCc1ccc(C2c3[nH]c4cc(F)c(Cl)cc4c3CCN2c2nccc(C(F)(F)F)n2)cc1 (stereo not shown) [Compound 164, methyl 3-(4-{6-chloro-7-fluoro-2-[4-(trifluoromethyl)pyrimidin-2-yl]-2,3,4,9-tetrahydro-1H-pyrido[3,4-b]indol-1-yl}phenyl)propanoate]

SMILES	IC50 [nM]
Cc1nc(C)nc(N2CCc3c([nH]c4ccc(Cl)cc34)C2c2cnc(N3C4CCC3COC4)nc2)n1 (stereo not shown) [Compound 338, 6-chloro-2-(4,6-dimethyl-1,3,5-triazin-2-yl)-1-[2-(3-oxa-8-azabicyclo[3.2.1]octan-8-yl)pyrimidin-5-yl]-2,3,4,9-tetrahydro-1H-pyrido[3,4-b]indole]	35
